# Test results reported in patent publication US20250346582A1, “SPLEEN TYROSINE KINASE INHIBITORS AND METHODS OF USE THEREOF” (THE BOARD OF TRUSTEES OF THE UNIVERSITY OF ILLINOIS, priority 2022, published 2025).
# Where two headings read alike, the source gives them in different places.
# Tests used:
# Syk-cSH2 = target: T1, Syk-cSH2 (Homo sapiens, UniProt P43405); assay: Fluorescence quenching vesicle binding assay, Syk-cSH2
# T1 construct: polyhistidine (N); made in house; host or cells: Escherichia coli BL21 (DE3) pLysS
# Description: (§1) The membrane-binding assay is based on fluorescence quenching of EGFP fused to a SH2 domain by a dark quencher containing lipid, dabsyl-PE, incorporated in lipid vesicles. The plate reader assay was performed using the Synergy™ Neo spectrofluorometer at 25° C. Nontreated black polystyrene 96-well plates (Corning) were used. Protein (10-50 nM) with the increasing concentration of vesicles with a given lipid composition in 20 mM Tris buffer, pH 7.4, containing 0.16 M NaCl was added to each row of wells and the EGFP fluorescence emission at 516 nm was measured with excitation set at 485 nm. Z′ factor for the assay system was determined as described^74. Imax and IC50 values of inhibitors were determined using the equation, I=Imax/(1+IC50/[I]) where I and [I] indicate % inhibition and inhibitor concentration, respectively. The average and standard deviation values were obtained from triplicate determinations.
# (§2) We also optimized a recently developed fluorescence quenching-based lipid-binding assay^47 for high-throughput screening of these molecules for their inhibitory activity against the PIP3-SH2 interaction. Specifically, we expressed SH2 domains as EGFP-tagged proteins and directly quantified their membrane binding by monitoring the quenching of EGFP fluorescence emission intensity by a dark quencher-containing lipid, N-dimethylaminoazo-benzenesulfonyl-phosphatidylethanolamine (dabsyl-PE), incorporated in the vesicles. We then screened for compounds that inhibited binding of Syk-cSH2, BLNK-SH2, and PLCγ2-cSH2, respectively, to 1-palmitoyl-2-oleoyl-PC (POPC)/1-palmitoyl-2-oleoyl-PS (POPS)/PIP3/dabsyl-PE (67:20:3:10) vesicles while eliminating those that inhibit their non-specific binding to anionic POPC/POPS/dabsyl-PE (70:20:10) vesicles. The quality of the screening system was evaluated using 1% dimethylsulfoxide (DMSO) and 20 μM D-myo-inositol-1,3,4,5-tetraphosphate (IP4) as negative and positive controls, respectively. The clear separation of positive and negative control data and the average Z′-factor of 0.7 supported the robustness of our system for high-throughput screen of PIP3-SH2 interaction inhibitors.
# PLCγ2-cSH2 = target: T2, PLCγ2-cSH2 (Homo sapiens, UniProt P16885); assay: Fluorescence quenching vesicle binding assay, PLCγ2-cSH2; details: Table 2, PLCγ2-cSH2 binding to POPC/POPS/PIP3/dabsyl-PE vesicles; for Emax: read-out: Imax (%)
# T2 construct: polyhistidine (N); made in house; host or cells: Escherichia coli BL21 (DE3) pLysS
# T2 sequence (P16885 646-735 limits assumed): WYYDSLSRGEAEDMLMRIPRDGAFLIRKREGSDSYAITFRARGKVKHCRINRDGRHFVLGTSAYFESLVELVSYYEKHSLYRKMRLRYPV
# Description: as §1, §2
# BLNK-SH2 = target: T3, BLNK-SH2 (Homo sapiens, UniProt Q8WV28); assay: Fluorescence quenching vesicle binding assay, BLNK-SH2; details: Table 2, BLNK-SH2 binding to POPC/POPS/PIP3/dabsyl-PE vesicles; for Emax: read-out: Imax (%)
# T3 construct: All SH2 domain constructs were cloned into the pRSET-B vector; polyhistidine (N); made in house; host or cells: Escherichia coli BL21 (DE3) pLysS
# T3 sequence (Q8WV28 346-453 limits assumed): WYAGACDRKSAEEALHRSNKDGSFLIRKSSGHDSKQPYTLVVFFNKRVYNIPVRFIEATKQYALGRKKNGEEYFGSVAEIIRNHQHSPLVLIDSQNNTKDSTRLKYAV
# Description: as §1, §2
# [1] = test system: BCR signaling axis (Syk-BLNK-PLCγ2); assay: Western blot of BCR signaling axis in Raji B lymphocytes; type: cell-based; details: Raji B cells
# Description: Cells were seeded at a density of 3.0×10^5 cells/well prior to incubation with inhibitors. Cells were incubated with 1-5 μM of Syk inhibitors overnight and stimulated with different antibodies: IgG2 for AML cells, IgM for Raji B cells, and OKT3 (Biolegend) for Jurkat cells. The cells were lysed in NP40 lysis buffer (50 mM Tris, pH 7.5, 150 mM NaCl, 1 mM EDTA, 1% NP40, 10% glycerol, 10 mM NaF, 10 mM Na3VO4, and the protease inhibitor cocktail) at 4° C. and the cell debris was removed by centrifugation. Samples were analyzed by SDS-PAGE. Proteins were separated and transferred to Immobilon-P polyvinylidene difluoride membrane (Millipore Sigma). The membrane was blocked with 5% bovine serum albumin for 1 h and incubated overnight at 4° C. with various antibodies (1:1000 dilution for all antibodies). After the unbound antibodies were removed by washing with 0.1% Tris buffer saline with 0.1% Tween20, the membranes were incubated with the horseradish peroxidase secondary antibody (1:5000 dilution) for 1 h at room temperature. The membranes were washed three more times with 0.1% Tris buffer saline with 0.1% Tween20 to remove the unbound horseradish peroxidase secondary antibody before imaging. The chemiluminescence intensity of protein bands in the gel was analyzed and documented by the Azure 500Q Imaging System.
# [2] = Table 3, efficacy determined by the vesicle binding assay
# [3] = Table 3, efficacy determined by the vesicle binding assay, read-out: IC50
# [4] = Table 2, Syk-cSH2 binding to POPC/POPS/PIP3/dabsyl-PE vesicles
Imax (%) (Syk-cSH2; [2]),IC50 (Syk-cSH2; [3]),SMILES,further results
Imax (%) = 18,2 µM,Cc1ccc(C(Nc2ncccn2)C(=[N+]=[N-])C(=O)OC2CCCC2)cc1 (stereo not shown) [WC-100],–
Imax (%) = 20,4 µM,[N-]=[N+]=C(C(=O)OC1CCCC1)C(Nc1ncccn1)c1ccc(C(F)(F)F)cc1 (stereo not shown) [WC-120],–
Imax (%) = 15,10 µM,Cc1ccc(C(Nc2ncc(C)s2)C(=[N+]=[N-])C(=O)OC2CCCCC2)cc1 (stereo not shown) [WC-92],–
Imax (%) = 20,1.5 µM,[N-]=[N+]=C(C(=O)OC1CCCCC1)C(Nc1cnccn1)c1cccnc1 (stereo not shown) [WC-125],–
Imax (%) = 15,4 µM,[N-]=[N+]=C(C(=O)OC1CCCC1)C(Nc1ccccn1)c1ccccc1 (stereo not shown) [WC-118],–
Imax (%) ≤ 10,20 µM,CCOC(=O)/C=C(\NS(=O)(=O)c1ccccc1)c1ccc(C)cc1 [WC-90],–
Imax (%) ≤ 10,5 µM,[N-]=[N+]=C(C(=O)OC1CCCCC1)C(Nc1ccccn1)c1ccc(Br)cc1 (stereo not shown) [WC-62],–
Imax (%) ≤ 10,4 µM,COc1cc(C(Nc2ncccn2)C(=[N+]=[N-])C(=O)OC(C)(C)C)cc(OC)c1OC (stereo not shown) [WC-59],–
Imax (%) = 10,5 µM,[N-]=[N+]=C(C(=O)OC1CCCCC1)C(Nc1ncccn1)c1ccc(F)cc1 (stereo not shown) [WC-32],–
Imax (%) ≤ 10,5 µM,CCOC(=O)C(=[N+]=[N-])C(Nc1ccccn1)c1ccccc1 (stereo not shown) [WC-110],–
Imax (%) = 15,4 µM,Cc1ccc(C(Nc2ncccn2)C(=[N+]=[N-])C(=O)ON2CCC(C)CC2)cc1 (stereo not shown) [WC-105],–
Imax (%) = 20,2 µM,Cc1ccc(C(Nc2ncccn2)C(=[N+]=[N-])C(=O)ON2CCOCC2)cc1 (stereo not shown) [WC-108],–
Imax (%) ≤ 10,10 µM,Cc1ccc(C(CC(=O)OC2CCCCC2)Nc2ncccn2)cc1 (stereo not shown) [WC-79],–
–,–,OCCc1c(Cl)cncc1I [VG594],"Emax (PLCγ2-cSH2): < 10%; Imax (%) (Syk-cSH2; [4]): <10%; IC50 (BLNK-SH2): 0.4 ± 0.03 µM; Emax (BLNK-SH2): 40 to 50%; effect on phosphorylation of BCR signaling proteins (Syk, BLNK, PLCγ2) [1]: blocked the phosphorylation of BLNK and PLCγ2 without a significant effect on Syk phosphorylation"
Imax (%) ≤ 10,7 µM,CCOC(=O)C(=[N+]=[N-])C(Nc1ccccn1)c1ccc(O)cc1 (stereo not shown) [WC-111],–
Imax (%) = > 10,15 µM,Cc1ccc(/C(=C/C(=O)OC2CCCCC2)Nc2cnccn2)cc1 [WC-80],–
Imax (%) = 12,3.5 µM,[N-]=[N+]=C(C(=O)OC1CCCCC1)C(Nc1ccccn1)c1ccc(O)c(Br)c1 (stereo not shown) [WC-52],–
Imax (%) = 10,3.8 µM,COc1ccc(C(Nc2ncccn2)C(=[N+]=[N-])C(=O)OC2CCCCC2)cc1 (stereo not shown) [WC-30],–

Imax (%) (Syk-cSH2; [2]),IC50 (Syk-cSH2; [3]),SMILES,further results
Imax (%) = 25,2 µM,[N-]=[N+]=C(C(=O)OC1CCCCC1)C(Nc1ncccn1)c1ccncc1 (stereo not shown) [WC-130],–
Imax (%) ≤ 10,5 µM,Cc1ccc(C(Nc2cc(C)ccn2)C(=[N+]=[N-])C(=O)OC2CCCCC2)cc1 (stereo not shown) [WC-95],–
Imax (%) = 10,2.8 µM,CN(C)c1ccc(C(Nc2ncccn2)C(=[N+]=[N-])C(=O)OC2CCCCC2)cc1 (stereo not shown) [WC-34],–
Imax (%) = 12,3.6 µM,COc1cc(OC)cc(C(Nc2ncccn2)C(=[N+]=[N-])C(=O)OC2CCCCC2)c1 (stereo not shown) [WC-45],–
Imax (%) = 10,5 µM,[N-]=[N+]=C(C(=O)OC1CCCCC1)C(Nc1ncccn1)c1ccccc1 (stereo not shown) [WC-46],–
Imax (%) ≤ 10,8 µM,Cc1ccc(C(Nc2cnccn2)C(=[N+]=[N-])C(=O)OC2CCCCC2)cc1 (stereo not shown) [WC-73],–
Imax (%) = 20,2 µM,CCOC(=O)C(=[N+]=[N-])C(Nc1ncccn1)c1ccc(O)cc1 (stereo not shown) [WC-115],–
Imax (%) = 15,2.8 µM,[N-]=[N+]=C(C(=O)OC1CCCCC1)C(Nc1ncccn1)c1cccs1 (stereo not shown) [WC-37],–
Imax (%) ≤ 10,4.5 µM,[N-]=[N+]=C(C(=O)OC1CCCCC1)C(Nc1ncccn1)c1ccc(Br)cc1 (stereo not shown) [WC-68],–
Imax (%) = 18,3.5 µM,CCOC(=O)C(=[N+]=[N-])C(Nc1ccccn1)c1cccnc1 (stereo not shown) [WC-128],–
Imax (%) = 12,4 µM,[N-]=[N+]=C(C(=O)OC1CCCCC1)C(Nc1ncccn1)c1ccc(O)cc1 (stereo not shown) [WC = 42],–
Imax (%) ≤ 10,2 µM,Cc1ccc(C(Nc2ncccn2)C(=[N+]=[N-])C(=O)OC(C)(C)C)cc1 (stereo not shown) [WC-56],–
Imax (%) ≤ 10,4.8 µM,CCOC(=O)C(=[N+]=[N-])C(Nc1ccccn1)c1ccc(C(F)(F)F)cc1 (stereo not shown) [WC-121],–
Imax (%) ≤ 10,2.5 µM,[N-]=[N+]=C(C(=O)OC1CCCCC1)C(Nc1ncccn1)c1c(F)c(F)c(F)c(F)c1F (stereo not shown) [WC-70],–
Imax (%) = 10,4.5 µM,CC(C)(C)OC(=O)C(=[N+]=[N-])C(Nc1ccccn1)c1ccc(Br)cc1 (stereo not shown) [WC-50],–
Imax (%) = 25,2 µM,Cc1ccc(C(Nc2ncccn2)C(=[N+]=[N-])C(=O)ON2CCN(C)CC2)cc1 (stereo not shown) [WC-109],–
–,–,CCOC(=O)NC(C(=O)OCC)c1cccc(Cl)n1 (stereo not shown) [VG370],"IC50 (PLCγ2-cSH2): 0.68 ± 0.05 µM; Emax (PLCγ2-cSH2): 40 to 50%; Imax (%) (Syk-cSH2; [4]): <10%; Emax (BLNK-SH2): < 20%; effect on phosphorylation of BCR signaling proteins (Syk, BLNK, PLCγ2) [1]: selectively suppressed phosphorylation of PLCγ2"
Imax (%) = 15,5 µM,[N-]=[N+]=C(C(=O)OC1CCCCC1)C(C=Cc1ccccc1)Nc1ncccn1 (stereo not shown) [WC-132],–

SMILES,Imax (%) (Syk-cSH2; [2]),IC50 (Syk-cSH2; [3]),further results
CCOP(=O)(/C=C(\Nc1ccccn1)c1ccc(C)cc1)OCC [WC-85],Imax (%) ≤ 10,–,IC50 (Syk-cSH2): 12 µM
CCOP(=O)(OCC)C(=[N+]=[N-])C(Nc1ccccn1)c1ccc(C)cc1 (stereo not shown) [WC-75],Imax (%) = 12,–,IC50 (Syk-cSH2): 7 µM
